This is an account of results in patent EP4745138A1, “THIO-GLUTARIMIDO ISOINDOLINONE DERIVATIVE, BIFUNCTIONAL PROTEIN DEGRADER CONTAINING SAME, AND USES THEREOF” (Gluetacs Therapeutics (Shanghai) Co., Ltd., priority 2023, dated 2025).

Structures are written as SMILES. Where two headings read alike, the source gives them in different places.

One assay relates to MM.1S. Nature of the assay: Tumor cell proliferation inhibition (CellTiter-Meiluncell Luminescent Cell Viability Assay). The class given is cell-based. To be noted: Homo sapiens, MM1.S, MM.1S, 96 hours; for inhibition at 0.01 µM: 10 nM, read-out: Inhibition Rate at 10 nM (%); for inhibition at 0.5 µM: 500 nM, read-out: Inhibition Rate at 500 nM (%). The essentials: (§1)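 Following overnight seeding, tumor cells received serial compound dilutions to final levels that included 10 nM and 500 nM. Viability was assessed by luminescence at the end of the specified exposure time. Cultures were kept at 37°C with 5% CO2.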

Another assay deals with MV-4-11. The description is as above. Particulars: Homo sapiens, 96 hours; for inhibition at 0.01 µM: MV4-11, 10 nM, read-out: Inhibition Rate at 10 nM (%); for inhibition at 0.5 µM: MV4-11, 500 nM, read-out: Inhibition Rate at 500 nM (%). The class given is cell-based. The essentials: as §1
For the next assay, the system named is JEKO-1. Described as above. The class given is cell-based. To be noted: Homo sapiens, 96 hours; for inhibition at 0.01 µM: 10 nM, read-out: Inhibition Rate at 10 nM (%); for inhibition at 0.5 µM: 500 nM, read-out: Inhibition Rate at 500 nM (%). Put shortly: as §1
For another assay, the system named is SW620. Described as above. To be noted: Homo sapiens, 96 hours, Table I-6, IRAK4 inhibitors. The class given is cell-based. The essentials:
as §1

In assay [1] the target is T1, human Cereblon WT GST-tagged protein (Homo sapiens, UniProt Q96SW2).
T1 construct: purchased CISBIO 64BDCRBNPEH
Briefly: CRBN-binding affinity, HTRF (CEREBLON BINDING kit). Particulars: for inhibition at 0.5 µM: read-out: Inhibition Rate at 0.5 µM (%); for inhibition at 2 µM: read-out: Inhibition Rate at 2 µM (%). The essentials: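 Competitive HTRF binding: compounds diluted in diluent #9 incubated with GST-tagged wild-type human Cereblon, thalidomide-Red tracer and anti-GST Eu antibody. Final compound concentrations 2 µM and 0.5 µM.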
For orientation: In TR-FRET formats the signal depends on donor and acceptor labels being close together.

The target in another assay is T2, IRAK4 (Homo sapiens, UniProt Q9NWZ3).
T2 construct: endogenous in cells; host or cells: hPBMC
Nature of the assay: Western blot, target protein degradation in hPBMC Cell. To be noted: substrate protein remaining %, treated at 50 nM and 500 nM, 24 hours. The class given is cell-based. Here is the method:
(§2) Conventional Western blot assay was performed to evaluate the effects of the compounds of the present disclosure on the expression of target proteins in cells.
(§3) (1) Cell Seeding and Protein Harvesting: The selected cells were processed according to the cell seeding procedure and protein harvesting procedure in Table II-2. Table II-2 Cell Seeding and Protein Harvesting Procedures
(§4) (2) To the collected supernatant, 5X SDS sample loading buffer was added, followed by denaturation at 95°C for 5 minutes. The denatured samples were then separated by SDS-PAGE electrophoresis on a polyacrylamide gel. Proteins were transferred to a nitrocellulose membrane (0.45 µm NC membrane), blocked with blocking buffer at room temperature for 1 hour, and subjected to antibody incubation and development procedures according to the antibody manufacturer's instructions (Cell Signaling Technology).
(§5) Half-Maximal Degradation Concentration value (the drug concentration required for degrading proteins by 50%, abbreviated as DC50) reads method: comparing the grayscale values of Western blot bands from drug-treated samples with those from blank DMSO-treated controls, and identifying the drug concentration range at which the grayscale value is half that of the DMSO-treated control bands.
(§6) DC50 values can be calculated using ImageJ software to measure grayscale values of Western blot bands from drug-treated samples. The concentration-response curve is fitted to estimate the drug concentration corresponding to half the grayscale value.
(§7) Target protein remaining (%) refers to the percentage of target protein remaining in cells after treatment with protein degrader compounds.
(§8) Calculation method for target protein remaining (%): Use ImageJ software to measure grayscale values of Western blot bands from drug (protein degrader)-treated samples. The grayscale value of drug-treated bands is divided by that of internal control protein bands, and the resulting quotient is normalized to obtain the relative percentage of remaining target protein after protein degrader treatment. Target protein degradation rate(%) = 1−target protein remaining(%). [formula]

The next assay has as its target T3, CDK2 (Homo sapiens, UniProt P24941).
T3 construct: the expression of target proteins in cells; endogenous in cells; host or cells: hPBMC
The assay is described as above. The class given is cell-based. To be noted: treated at 50 nM and 500 nM, 24 hours. As to the method:
as §2, §3, §4, §5, §6, §7, §8

For another assay, the system named is A375. Nature of the assay: Tumor cell proliferation inhibition (CellTiter-Meiluncell Luminescent Cell Viability Assay). The class given is cell-based. To be noted: Homo sapiens, 96 hours, Table I-2, ALK inhibitors. Put shortly:
(§9)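 Luminescent viability read-out (CellTiter-Meiluncell) after compound exposure for a specified time; IC50 determined. Seeding was done the day before dosing with serially diluted compound, final concentrations including 500 nM and 10 nM. Culture at 37°C, 5% CO2.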

The next assay relates to CFPAC-1. Described as above. The class given is cell-based. To be noted: Homo sapiens, 96 hours, Table I-2, ALK inhibitors. The essentials: as §9
For a further assay, the system named is MCF-7. Described as above. The class given is cell-based. To be noted: Homo sapiens, 96 hours, Table I-2, ALK inhibitors. Put shortly:
as §1

Another assay has as its system SR. Described as above. Particulars: Homo sapiens, 96 hours, Table I-1, designed based on the ALK inhibitors, read-out: Inhibitory activity (IC50, nM) SR. As to the method:
(§10) The tumor cells used herein were cultured in a cell culture medium listed in table 3 at 37°C in an incubator with 5% CO2. Prior to experimentation, all cell lines used were correctly identified by STR profiling, and tested negative for mycoplasma contamination using a mycoplasma detection kit through routine screenings. Table 3. Tumor cells and cell culture medium used in the present disclosure
(§11) The IC50 values of the compounds of the present disclosure (including the compounds in Table 1, Table 2, and Examples) were determined using the CellTiter-Meiluncell Luminescent Cell Viability Assay Kit from Dalian Meilun Biotech Co., Ltd. The detailed procedure is as follows: Tumor cells were seeded in 96-well cell culture plates at the densities specified in Table 4. On the following day, the test compounds of the present disclosure were subjected to serial dilution. […] Subsequently, 0.5 µL of the test compound dilution was transferred into the 96-well plate containing the cells, with each well containing 100 µL of cell culture medium. […] Into the 96-well plate, the diluted test compounds and corresponding detection reagents were added, resulting in final test compound concentrations of 500 nM and 10 nM, respectively. The experimental procedure is described below using the diluted 2 µM test compound as an example.
(§12) 0.5 µL of the aforementioned diluted compound of the present disclosure (including the compounds in Table 1, Table 2, and Examples) was added to the seeded cells in 100 µL of medium, yielding a final test compound concentration of 10 nM. After the cells were treated with the compounds of the present disclosure for a specified period, the cell viability assay reagent was added to the culture medium according to the kit's instructions to determine cell viability. […] All controls were treated using the same procedure as the compounds of the present disclosure. […] Seeding protocol and treatment time for tumor cells

In a further assay the test system is HCC827. The assay is described as above. Particulars: Homo sapiens, 96 hours, Table I-1, designed based on the ALK inhibitors, read-out: Inhibitory activity (IC50, nM) HCC827. Here is the method:
as §10, §11, §12

T1 sequence (Q96SW2 whole entry): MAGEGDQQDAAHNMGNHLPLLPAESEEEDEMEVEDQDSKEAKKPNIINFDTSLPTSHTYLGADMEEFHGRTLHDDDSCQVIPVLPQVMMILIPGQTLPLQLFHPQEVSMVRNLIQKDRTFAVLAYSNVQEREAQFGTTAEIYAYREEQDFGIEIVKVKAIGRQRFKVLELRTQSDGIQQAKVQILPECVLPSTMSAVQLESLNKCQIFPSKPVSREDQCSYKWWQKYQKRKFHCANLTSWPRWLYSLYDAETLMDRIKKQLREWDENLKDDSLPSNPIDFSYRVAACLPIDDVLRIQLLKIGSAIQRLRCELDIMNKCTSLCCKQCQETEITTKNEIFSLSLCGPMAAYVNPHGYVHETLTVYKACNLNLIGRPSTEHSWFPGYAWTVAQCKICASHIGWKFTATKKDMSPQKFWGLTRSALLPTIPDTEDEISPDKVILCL
T2 sequence (Q9NWZ3 whole entry): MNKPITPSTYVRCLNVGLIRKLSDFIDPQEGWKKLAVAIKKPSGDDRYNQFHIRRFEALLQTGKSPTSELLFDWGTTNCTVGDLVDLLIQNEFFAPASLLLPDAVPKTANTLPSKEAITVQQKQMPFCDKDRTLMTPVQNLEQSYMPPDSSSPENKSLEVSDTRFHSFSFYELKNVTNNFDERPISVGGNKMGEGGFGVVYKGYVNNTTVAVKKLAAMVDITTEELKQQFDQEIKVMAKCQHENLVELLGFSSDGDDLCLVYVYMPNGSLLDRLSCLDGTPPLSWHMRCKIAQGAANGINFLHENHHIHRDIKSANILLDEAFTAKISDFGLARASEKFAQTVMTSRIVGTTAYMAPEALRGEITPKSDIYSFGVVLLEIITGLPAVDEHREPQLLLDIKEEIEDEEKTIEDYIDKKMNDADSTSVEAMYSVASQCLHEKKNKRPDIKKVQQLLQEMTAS

With `O=C1CCC(N2Cc3cc(CN4CCC(n5cc(NC(=O)c6coc(-c7ccnc(NCC(F)(F)F)c7)n6)c(C(F)F)n5)CC4)ccc3C2=S)C(=O)N1` (stereo not drawn) [GT-05292, N-(3-(difluoromethyl)-1-(1-((2-(2,6-dioxopiperidin-3-yl)-1-thioxoisoindolin-5-yl)methyl)piperidin-4-yl)-1H-pyrazol-4-yl)-2-(2-((2,2,2-trifluoroethyl)amino)pyridin-4-yl)oxazole-4-carboxamide], the inhibition (in general, the change of the read-out against control, counted positive when it falls) at 0.01 µM fell in the range of 50 to 60% in the assay with MM.1S (Table I-6, IRAK4 inhibitors); 80 to 100% in the assay with MV-4-11 (Table I-6, IRAK4 inhibitors); 30 to 40% in the assay on JEKO-1 (Table I-6, IRAK4 inhibitors); 70 to 80% in the assay with SW620 (SW-620, 10 nM, read-out: Inhibition Rate at 10 nM (%)). Further, the inhibition at 0.5 µM is 80 to 100% in the assay on MM.1S (Table I-6, IRAK4 inhibitors); 80 to 100% with MV-4-11 (Table I-6, IRAK4 inhibitors); 80 to 100% in the assay with JEKO-1 (Table I-6, IRAK4 inhibitors); 80 to 100% in the assay with SW620 (SW-620, 500 nM, read-out: Inhibition Rate at 500 nM (%)); 20 to 30% in assay [1]. For the same molecule, in [1], the inhibition at 2 µM lay in the range of 60 to 80%. The “Degradation of substrate protein IRAK4” value on IRAK4 is “A (0% ≤ substrate protein remaining % ≤ 80%)”.

For the molecule `CC(C)(O)c1cc2nn(C3CCN(Cc4ccc5c(c4)CN(C4CCC(=O)NC4=O)C5=S)CC3)cc2cc1NC(=O)c1cccc(C(F)(F)F)n1` (stereo not drawn) [GT-05297, N-(2-(1-((2-(2,6-dioxopiperidin-3-yl)-1-thioxoisoindolin-5-yl)methyl)piperidin-4-yl)-6-(2-hydroxypropan-2-yl)-2H-indazol-5-yl)-6-(trifluoromethyl)picolinamide], in [1], the inhibition at 0.5 µM lay in the range of 60 to 80% and the inhibition at 2 µM lay within 80 to 100%. Besides, the “Degradation of substrate protein IRAK4” value at IRAK4 is on record as “A (0% ≤ substrate protein remaining % ≤ 80%)”.

Take `Cc1ccsc1C(=O)n1nc(Nc2ccc(S(=O)(=O)N3CCN(Cc4ccc5c(c4)CN(C4CCC(=O)NC4=O)C5=S)CC3)cc2)nc1N` (stereo not drawn) [GT-08792, 3-(5-((4-((4-((5-amino-1-(3-methylthiophene-2-carbonyl)-1H-1,2,4-triazol-3-yl)amino)phenyl)sulfony 1)piperazin-1-yl)methyl)-1-thioxoisoindolin-2-yl)piperidine-2,6-dione]: in the assay on MM.1S (Table I-13, CDK2 inhibitors), the inhibition at 0.01 µM lay within 10 to 20% and the inhibition at 0.5 µM fell in the range of 60 to 70%. In addition, in the assay on MV-4-11 (Table I-13, CDK2 inhibitors), the inhibition at 0.01 µM lay within 0 to 5% and the inhibition at 0.5 µM was 50 to 60%. In assay [1], the inhibition at 0.5 µM was 60 to 80% and the inhibition at 2 µM lay in the range of 60 to 80%. The “Degradation of substrate protein CDK2” value on CDK2 is recorded as “Yes”.

Consider `Cc1ccsc1C(=O)n1nc(Nc2ccc(S(=O)(=O)N3CCN(Cc4ccc5c(c4)C(=S)N(C4CCC(=O)NC4=O)C5)CC3)cc2)nc1N` (stereo not drawn) [GT-08798, 3-(6-((4-((4-((5-amino-1-(3-methylthiophene-2-carbonyl)-1H-1,2,4-triazol-3-yl)amino)phenyl)sulfony 1)piperazin-1-yl)methyl)-1-thioxoisoindolin-2-yl)piperidine-2,6-dione], for which the inhibition at 0.01 µM in the assay on MM.1S (Table I-13, CDK2 inhibitors) was 10 to 20%; in the assay on MV-4-11 (Table I-13, CDK2 inhibitors) it was 20 to 30%; with JEKO-1 (Table I-13, CDK2 inhibitors) it was 10 to 20%. The inhibition at 0.5 µM in the assay with MM.1S (Table I-13, CDK2 inhibitors) lay in the range of 50 to 60%; in the assay on MV-4-11 (Table I-13, CDK2 inhibitors), 60 to 70%; in the assay on JEKO-1 (Table I-13, CDK2 inhibitors), 60 to 70%; in assay [1], 53 to 60%. Further, the inhibition at 2 µM in [1] was in the range of 60 to 80%. The “Degradation of substrate protein CDK2” value on CDK2 was “Yes”.

As to `C[C@H]1Oc2cc(cnc2N)-c2c(nn(C)c2C#N)CN(C)C(=O)c2ccc(F)cc21` [lorlatinib, reference compound], the inhibition at 0.01 µM in the assay on MM.1S (Table I-2, ALK inhibitors) was -5 to 0%; in the assay on A375 (A-375, 10 nM, read-out: Inhibition Rate at 10 nM (%)), 10 to 20%; in the assay on MV-4-11 (Table I-2, ALK inhibitors), -20 to -10%; in the assay on CFPAC-1 (10 nM, read-out: Inhibition Rate at 10 nM (%)), 10 to 20%; in the assay on MCF-7 (MCF7, 10 nM, read-out: Inhibition Rate at 10 nM (%)), 10 to 20%. For the same molecule, the inhibition at 0.5 µM in the assay with MM.1S (Table I-2, ALK inhibitors) was -20 to -10%; in the assay with A375 (A-375, 500 nM, read-out: Inhibition Rate at 500 nM (%)), 10 to 20%; in the assay with MV-4-11 (Table I-2, ALK inhibitors), -5 to 0%; in the assay on CFPAC-1 (500 nM, read-out: Inhibition Rate at 500 nM (%)), 20 to 30%; in the assay with MCF-7 (MCF7, 500 nM, read-out: Inhibition Rate at 500 nM (%)) it was 20 to 30%. In addition, the IC50 in the assay with SR and in the assay with HCC827 was more than 10000 nM in each case.
